Reference: patent US4183935A, “Bispidine derivatives, their preparation, and drugs containing same” (priority 1977, dated 1980)
Where a name gives a salt, the structure may show the parent alone. Read-outs that look alike come from different tables or passages of the source.

Columns and labels:
Assay type in all cases: in vivo, rats (Sprague Dawley)
in vivo = conditions: in vivo; rat, oral; dose at which the maximum effect is achieved; read-out: Maximum effect: Dose (maximum tolerated dose)
Protocol: (§1) To determine their anti-arrhythmic activity, the substances were administered orally to rats (Sprague Dawley, weight 200-250 g) 45 minutes before starting a thiobutabarbital narcosis (100 mg/kg administered intraperitoneally). Aconitine was used to produce arrhythmias, and was infused intravenously 60 minutes after administration of the active substance (dosage rate 0.005 mg/kg per minute). In the untreated animals, arrhythmias manifest themselves after an average of 3.32 minutes, and their occurrence can be delayed by anti-arrhythmic agents, the delay being dependent on the dose. The ED50% is the does which increases by 50% the duration of infusion up to the occurrence of arrhythmias. R.E. is the relative effect, based on quinidine.ident.1.00. The maximum effect is that achieved by administering the maximum tolerated dose. .increment.% indicates the percentage by which the duration of the aconitine infusion can be increased. R.M.E. is the relative maximum effectiveness, based on quinidine.ident.1.00. The dose producing a toxic effect indicates the amount (in mg/kg) at which the first toxic symptoms such as cyanosis or changes in ECG occur. Q is the quotient of the toxic dose and the ED50%.

[1] = system: arrhythmias produced by aconitine; experiment: animal or person; conditions: for ED50: Rattus norvegicus, po, read-out: Effective dose ED50% (dose which increases by 50% the duration of infusion up to the occurrence of arrhythmias); for R.E. (relative effect, based on quinidine = 1.00): from ED50%; for R.M.E. (relative maximum effectiveness, based on quinidine = 1.00): from maximum effect; for Maximum effect: Δ% (percentage by which the duration of the aconitine infusion can be increased): rat, oral, at the maximum tolerated dose
Protocol: as §1

[2] = toxic effect: dose at which first toxic symptoms such as cyanosis or changes in ECG occur; conditions: for Toxic effect: Dose (dose producing a toxic effect): first toxic symptoms such as cyanosis or changes in ECG; for selectivity ratio: rat, in vivo, po
Protocol: as §1

[3] = toxic dose / ED50%, read-out: Q (quotient of the toxic dose and the ED50%)

In the case of `c1ccc(CN2CC3CC(C2)CN(C(c2ccccc2)c2ccccc2)C3)cc1` [C6 H5 H H 0, N-Benzyl-N'-benzhydryl-bispidine fumarate], the MTD (in vivo) is reported as 215 mg/kg, the ED50 [1] is reported as 20.4 mg/kg and the “R.E. (relative effect, based on quinidine = 1.00)” value [1] is reported as 2.09. For the same compound, the “R.M.E. (relative maximum effectiveness, based on quinidine = 1.00)” value [1] was 1.54, the “Maximum effect: Δ% (percentage by which the duration of the aconitine infusion can be increased)” value [1] was 205% and the “Toxic effect: Dose (dose producing a toxic effect)” value (“Toxic effect: Dose” for short) [2] was 464 mg/kg. For the same compound, the selectivity ratio [2, 3] was 22.8.

In the case of `c1ccc(CN2CC3CC(C2)CN(CC(c2ccccc2)c2ccccc2)C3)cc1` [C6 H5 H H 1, N-benzyl-N'-2,2-diphenylethylbispidine fumarate x H2 O], the MTD (in vivo) is reported as 46.4 mg/kg, the ED50 [1] is reported as 13 mg/kg and the “R.E. (relative effect, based on quinidine = 1.00)” value [1] is reported as 3.28. The “R.M.E. (relative maximum effectiveness, based on quinidine = 1.00)” value [1] was 1.53, the “Maximum effect: Δ% (percentage by which the duration of the aconitine infusion can be increased)” value [1] was 203% and the “Toxic effect: Dose” value [2] was 100 mg/kg. The selectivity ratio [2, 3] was 7.7.

With `FC(F)(F)c1cccc(CN2CC3CC(CN(Cc4ccccc4)C3)C2)c1` [H CF3 H 0, N-Benzyl-N'-(3-trifluoromethylbenzyl)-bispidine fumarate] the MTD (in vivo) was 100 mg/kg, the ED50 [1] was 25.4 mg/kg and the “R.E. (relative effect, based on quinidine = 1.00)” value [1] was 1.68. For the same compound, the “R.M.E. (relative maximum effectiveness, based on quinidine = 1.00)” value [1] was 1.82, the “Maximum effect: Δ% (percentage by which the duration of the aconitine infusion can be increased)” value [1] was 242% and the “Toxic effect: Dose” value [2] was 215 mg/kg.

With `Clc1ccc(CN2CC3CC(CN(Cc4ccccc4)C3)C2)cc1Cl` [H Cl Cl 0, N-Benzyl-N'-(3,4-dichlorobenzyl)-bispidine fumarate] the MTD (in vivo) was 215 mg/kg, the ED50 [1] was 15.6 mg/kg and the “R.E. (relative effect, based on quinidine = 1.00)” value [1] was 2.74. The “R.M.E. (relative maximum effectiveness, based on quinidine = 1.00)” value [1] was 2.13, the “Maximum effect: Δ% (percentage by which the duration of the aconitine infusion can be increased)” value [1] was 283% and the “Toxic effect: Dose” value [2] was 464 mg/kg. It also gave a selectivity ratio [2, 3] of 29.7.

With `Clc1cccc(CN2CC3CC(CN(Cc4ccccc4)C3)C2)c1` [H Cl H 0, N-benzyl-N'-(3-chlorobenzyl)-bispidine fumarate] the MTD (in vivo) was 46.4 mg/kg, the ED50 [1] was 16.6 mg/kg and the “R.E. (relative effect, based on quinidine = 1.00)” value [1] was 2.57. The “R.M.E. (relative maximum effectiveness, based on quinidine = 1.00)” value [1] was 0.92, the “Maximum effect: Δ% (percentage by which the duration of the aconitine infusion can be increased)” value [1] was 123% and the “Toxic effect: Dose” value [2] was 100 mg/kg. For the same compound, the selectivity ratio [2, 3] was 6.

With `Fc1ccc(CN2CC3CC(CN(Cc4ccccc4)C3)C2)cc1` [H H F 0, N-Benzyl-N'-(4-fluorobenzyl)-bispidine fumarate] the MTD (in vivo) was 100 mg/kg, the ED50 [1] was 20.2 mg/kg and the “R.E. (relative effect, based on quinidine = 1.00)” value [1] was 2.11. The “R.M.E. (relative maximum effectiveness, based on quinidine = 1.00)” value [1] was 1.80, the “Maximum effect: Δ% (percentage by which the duration of the aconitine infusion can be increased)” value [1] was 240% and the “Toxic effect: Dose” value [2] was 215 mg/kg. It also gave a selectivity ratio [2, 3] of 10.6.

For `C=C[C@H]1C[N@@]2CC[C@H]1C[C@@H]2[C@@H](O)c1ccnc2ccc(OC)cc12` [Quinidine, reference compound], the MTD (in vivo) was 215 mg/kg, the ED50 [1] was 42.7 mg/kg and the “R.E. (relative effect, based on quinidine = 1.00)” value [1] was 1.00. The “R.M.E. (relative maximum effectiveness, based on quinidine = 1.00)” value [1] was 1.00, the “Maximum effect: Δ% (percentage by which the duration of the aconitine infusion can be increased)” value [1] was 133% and the “Toxic effect: Dose” value [2] was 464 mg/kg. For the same compound, the selectivity ratio [2] was 10.9.
